For experiment [1], the system named is P. nodorum. In kind it is cell-based, Parastagonospora nodorum. The source says: (§1) Conidia of Fusarium spp., A. alternata, B. sorokiniana, and C. cucumerinum were collected from the surface of their colonies on potato dextrose agar by flooding the mycelium with sterilized distilled water (SDW) and gently rubbing with a glass rod, while P. nodorum spores were obtained by washing off wheat kernels infested with the pathogen. The spores (conidia) were suspended in SDW (control) or in SDW-dissolved WAMPs, WAMP-2-derived peptides, the fungicide or their mixtures to a final concentration of 10^4–10^5 spores/mL and incubated at 20–22 °C for 5–6 or 12–16 h depending on the pathogen species. The number of germinated and non-germinated spores (500 ones of each pathogen per treatment) was counted in wells of a polystyrene culture plate using an inverted microscope followed by calculation of the percent of inhibition of the spore germination as compared to control.
(§2) For each pathogen, tests on evaluation of antifungal or sensitizing activity of WAMP homologues or their peptides (three replications per treatment, 500 counted conidia in each one) included at least two independent experimental series. Mean values, standard deviations (SD), standard errors (SE), and the significance of differences (p ≤ 0.05) of the means between treatments and controls (t-test for the independent variables) were determined using […] v. 6.1 software (StatSoft Inc., Tulsa, OK, USA).

The test system of the next experiment is F. oxysporum. In kind it is cell-based, Fusarium oxysporum.
Source text: as §1, §2

Experiment [2] concerns B. sorokiniana. The format is cell-based, Bipolaris sorokiniana.
Source text: as §1, §2

Another experiment has as its system C. cucumerinum. In kind it is cell-based, Cladosporium cucumerinum.
Source text: as §1, §2

Experiment [3] has as its system F. culmorum. The experiment in a line: Inhibition of spore (conidia) germination, microplate assay. In kind it is cell-based, Fusarium culmorum. The following applies: for IC50: WAMP-2-derived synthetic peptides, spore germination; for Inhibition of conidium germination: peptide alone, 400 μg/mL, mean of three experiments.
Source text: as §1, §2

Experiment [4] relates to A. alternata. In kind it is cell-based, Alternaria alternata.
Source text: as §1, §2

In experiment [5] the test system is F. avenaceum. The experiment in a line: Checkerboard sensitization assay, WAMP-2 fragment with Folicur EC 250 (tebuconazole), spore germination. In kind it is cell-based, Fusarium avenaceum. The following applies: effective tebuconazole–WAMP-2 fragment composition; FFCI ≤ 0.5 = synergy; MFC by probit analysis.
Source text: as §1, with “control. […]” for “control.”
(§3) The fragments were tested at concentrations ranging between 5, 10 and 50 μg/mL against B. sorokiniana, A. alternata or other cereal-pathogenic fungi (F. culmorum, F. avenacenum and P. nodorum), respectively, to concentrations that produced the inhibitory effect of ≤50%. The sub-fungicidal concentrations of tebuconazole were preliminarily determined for each pathogen through serial double or fivefold dilutions. […]

Experiment [6] deals with F. avenaceum. The experiment in a line: Inhibition of spore (conidia) germination, microplate assay. In kind it is cell-based, Fusarium avenaceum. The following applies: for IC50: WAMP-2-derived synthetic peptides, spore germination.
Source text: as §1, §2

Experiment [7] deals with B. sorokiniana. The experiment in a line: Checkerboard sensitization assay, WAMP-2 fragment with Folicur EC 250 (tebuconazole), spore germination. In kind it is cell-based, Bipolaris sorokiniana. The following applies: effective tebuconazole–WAMP-2 fragment composition; FFCI ≤ 0.5 = synergy; MFC by probit analysis.
Source text: as §1, with “control. […]” for “control.”
as §3

Experiment [8] deals with F. culmorum. The description is as above. In kind it is cell-based, Fusarium culmorum. The following applies: effective tebuconazole–WAMP-2 fragment composition; FFCI ≤ 0.5 = synergy; MFC by probit analysis.
Source text: as §1, with “control. […]” for “control.”
as §3

Experiment [9] relates to A. alternata.
Source text: as §1, with “control. […]” for “control.”
as §3

Experiment [10] deals with P. nodorum. The experiment in a line: Checkerboard sensitization assay, WAMP-2 fragment with Folicur EC 250 (tebuconazole), spore germination. In kind it is cell-based, Parastagonospora nodorum. The following applies: effective tebuconazole–WAMP-2 fragment composition; FFCI ≤ 0.5 = synergy; MFC by probit analysis.
Source text: as §1, with “control. […]” for “control.”
as §3

The mark [11] stands for this setting: WAMP-2-derived synthetic peptides, spore germination.
Setting [12] is: peptide alone, 400 μg/mL, mean of three experiments.

Converted amounts (≈) assume the structure as drawn. Where two headings read alike, the source gives them in different places. Residues, ends and D or L forms follow the SMILES beside them.

Regarding `N=C(N)NCCC[C@H](NC(=O)[C@H](CS)NC(=O)CNC(=O)[C@H](CCCNC(=N)N)NC(=O)[C@H](CS)NC(=O)[C@H](CCC(N)=O)NC(=O)[C@H](CO)NC(=O)[C@H](CCC(N)=O)NC(=O)[C@H](CS)NC(=O)[C@H](CO)NC(=O)CNC(=O)[C@H](CCCCN)NC(=O)CN)C(=O)O` [WAMP-C] (H-GKGSCQSQCRGCR-OH), the IC50 is 329.6 ± 7.9 µg/mL (≈ 241 µM) in the experiment on P. nodorum [1]; greater than 700 µg/mL with F. oxysporum; 429.5 ± 51.5 µg/mL (≈ 314 µM) with B. sorokiniana [2]; 5.3 ± 0.1 µg/mL (≈ 3.87 µM) in the experiment on C. cucumerinum; greater than 700 µg/mL in the experiment on F. culmorum [3]; 550.4 ± 41.3 µg/mL (≈ 402 µM) in the experiment with A. alternata [4]. The “Inhibition of conidium germination” value with F. culmorum [3] came out at 23%.

In the case of `CC(C)C[C@H](N)C(=O)N[C@@H](CS)C(=O)N[C@@H](CS)C(=O)NCC(=O)N[C@@H](CCCCN)C(=O)N[C@@H](Cc1ccc(O)cc1)C(=O)NCC(=O)N[C@@H](Cc1ccccc1)C(=O)N[C@@H](CS)C(=O)NCC(=O)N[C@@H](CO)C(=O)NCC(=O)O` [WAMP-G1] (H-LCCGKYGFCGSG-OH), the 50% inhibitory concentration (IC50) was greater than 700 µg/mL in the experiment with P. nodorum [1]; greater than 700 µg/mL with F. oxysporum; 273.1 ± 45.7 µg/mL (≈ 229 µM) in the experiment on B. sorokiniana [2]; greater than 700 µg/mL in the experiment with C. cucumerinum; greater than 700 µg/mL with F. culmorum [3]; greater than 700 µg/mL in the experiment on A. alternata [4].

`C[C@H](NC(=O)[C@H](CC(=O)O)NC(=O)CNC(=O)[C@H](CO)NC(=O)CNC(=O)[C@H](CS)NC(=O)[C@H](Cc1ccccc1)NC(=O)CNC(=O)[C@H](Cc1ccc(O)cc1)NC(=O)[C@H](CCCCN)NC(=O)CNC(=O)[C@H](CS)NC(=O)[C@@H](N)CS)C(=O)N[C@@H](Cc1ccc(O)cc1)C(=O)N[C@@H](CS)C(=O)O` [WAMP-G2] (H-CCGKYGFCGSGDAYC-OH; N-terminus and C-terminus assumed): the “FFCI (Fractional Fungicidal Concentration Index)” value with F. avenaceum [5] was 0.03; in the experiment with B. sorokiniana [7], 0.13; with F. culmorum [8], 0.02; in the experiment on A. alternata [9] (effective tebuconazole–WAMP-2 fragment composition, FFCI ≤ 0.5 = synergy, MFC by probit analysis) it was 0.05; in the experiment with P. nodorum [10], 0.04. The 50% inhibitory concentration (IC50) is 424.1 ± 12.1 µg/mL (≈ 277 µM) in the experiment on P. nodorum [1] (setting [11]); 391.2 ± 34.2 µg/mL (≈ 255 µM) in the experiment on F. oxysporum (setting [11]); 195.2 ± 36.8 µg/mL (≈ 127 µM) with B. sorokiniana [2] (setting [11]); 410.2 ± 29.1 µg/mL (≈ 267 µM) in the experiment with C. cucumerinum (setting [11]); 602.8 ± 3.1 µg/mL (≈ 393 µM) with F. avenaceum [6]; greater than 700 µg/mL in the experiment with F. culmorum [3]. The compound also gave an IC50 in the experiment on A. alternata [4] (setting [11]) of 145.6 ± 29.4 µg/mL (≈ 94.9 µM). Besides, the “Inhibition of conidium germination” value in the experiment with F. culmorum [3] worked out at 26.2%; in the experiment with A. alternata [4] (setting [12]), 83.8%. Also, in the experiment on A. alternata [9] (compositions 100 + 0.05 and 100 + 0.1 µg/mL (two of nine)), the “type of peptide–fungicide interaction” value is “additive effect”.

As to `C[C@H](N)C(=O)N[C@@H](CCC(N)=O)C(=O)N[C@@H](CCCNC(=N)N)C(=O)N[C@@H](CS)C(=O)NCC(=O)N[C@@H](CC(=O)O)C(=O)N[C@@H](CCC(N)=O)C(=O)N[C@@H](C)C(=O)N[C@@H](CCCNC(=N)N)C(=O)NCC(=O)N[C@@H](C)C(=O)N[C@@H](CCCCN)C(=O)N[C@@H](CS)C(=O)O` [WAMP-N] (H-AQRCGDQARGAKC-OH), the IC50 in the experiment on P. nodorum [1] was 220.2 ± 13.5 µg/mL (≈ 161 µM); in the experiment on F. oxysporum, 238.0 ± 32.4 µg/mL (≈ 175 µM); with B. sorokiniana [2], 72.9 ± 12.4 µg/mL (≈ 53.5 µM); in the experiment with C. cucumerinum, 280.2 ± 29.7 µg/mL (≈ 205 µM); in the experiment on F. avenaceum [6], greater than 700 µg/mL; in the experiment on F. culmorum [3], 332.4 ± 26.1 µg/mL (≈ 244 µM). This compound also showed an IC50 with A. alternata [4] of 102.6 ± 19.6 µg/mL (≈ 75.2 µM). In the experiment on F. avenaceum [6] (setting [12]), the “Inhibition of conidium germination” value is reported as 40.4%.

A word on the IC50: it is the point on the concentration scale where inhibition reaches its midpoint.

The values above are taken from publication PMC7662308, “Hevein-Like Antimicrobial Peptides Wamps: Structure–Function Relationship in Antifungal Activity and Sensitization of Plant Pathogenic Fungi to Tebuconazole by WAMP-2-Derived Peptides” (International Journal of Molecular Sciences, 2020).
